{"source": "paper PMC5458272", "key": {"Aurora-A [1]": {"biological_target": "T1, Aurora-A (Homo sapiens, UniProt O14965)", "T1 sequence (O14965 1-403)": "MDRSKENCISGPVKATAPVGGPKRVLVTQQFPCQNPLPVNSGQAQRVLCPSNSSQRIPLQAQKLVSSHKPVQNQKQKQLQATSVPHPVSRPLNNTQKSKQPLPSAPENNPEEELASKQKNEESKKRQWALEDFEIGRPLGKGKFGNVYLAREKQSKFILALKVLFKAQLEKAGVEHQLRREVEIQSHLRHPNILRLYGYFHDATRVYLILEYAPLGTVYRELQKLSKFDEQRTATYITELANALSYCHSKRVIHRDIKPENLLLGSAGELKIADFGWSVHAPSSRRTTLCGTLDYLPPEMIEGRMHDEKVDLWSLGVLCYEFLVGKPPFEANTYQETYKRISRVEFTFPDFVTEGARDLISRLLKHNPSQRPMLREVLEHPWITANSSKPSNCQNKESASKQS", "experiment": "FastStep SPR direct binding of compounds to immobilized Aurora-A", "parameters": "His-tag (N); host or cells: Escherichia coli BL21(DE3)", "details": "for Kd: SPR, Aurora-A immobilized on COOH5 sensorchip, affinities from Scatchard plots, ± standard error of best-fit, low affinity given as >100 μM", "experimental": "We evaluated the interaction of the selected compounds with Aurora-A immobilized on a COOH5 sensorchip by FastStep Surface Plasmon Resonance (SPR) experiments. Sensorgrams were obtained using Aurora-A as ligand and injecting increasing concentrations of the inhibitors (see Materials and Methods) as analytes in running buffer (Figure 3A).\nSPR experiments were carried out using a SensiQ Pioneer apparatus. The sensor chip (COOH5, with a hydrogel-based sensing surface endowed with high binding capacity) was chemically activated by a 35 μl injection of a 1:1 mixture of 200 mM N-ethyl-N’-(3-[…]) carbodiimide and 50 mM N-hydroxysuccinimide at a flow rate of 5 μl/min. Aurora-A was immobilized on the activated sensor chip via amine coupling. The immobilization was carried out in 20 mM sodium acetate at pH 4.5; the remaining ester groups were blocked by injecting 1 M ethanolamine hydrochloride (35 μl).\nCompounds for testing were purchased from Ambinter (Paris, France). […] Compounds were injected onto the sensor chip at a constant flow in FastStep injection experiments, in order to rapidly obtain information on the binding of the analyte at different concentrations, with a single dissociation phase. […] At least two independent experiments were performed and averaged for each series of injections. The interaction of immobilized Aurora-A ligand with the inhibitor compounds was detected through mass concentration-dependent changes in the refractive index on the sensor chip surface, expressed as RUs."}, "Aurora-A/TPX2 complex": {"biological_target": "T2, Aurora-A/TPX2 complex (Homo sapiens, UniProt O14965)", "T2 construct": "His-tag (N); host or cells: Escherichia coli BL21(DE3)", "T2 sequence (O14965 1-403)": "T1 sequence (O14965 1-403)", "experiment": "SPR competition between GST-TPX2-1-43 and compounds for Aurora-A binding", "details": "for Interference with TPX2 binding to Aurora-A (in words): SPR competition", "description": "(§4) TPX2 in running buffer was injected at different concentrations (ranging from 10 nM to 5 μM), in order to determine the affinity constant of the interaction between Aurora-A and TPX2 and the conditions of the competition experiments (flow rate= 30 μl/min). […] IC50 were calculated on the basis of the RU value at each inhibitor concentration (10 sec after the end of each association sensorgram) since TPX2 binding signal decreases by increasing inhibitor concentration. Both rapid binding and rapid dissociation of inhibitors were subtracted from the sensorgrams."}, "[2]": {"system": "U2OS osteosarcoma cell line", "experiment": "Immunofluorescence of mitotic spindle structure in synchronized U2OS cells", "type": "cell-based, human", "details": "10 μM, added 6 hours after thymidine release, fixed after further 4 hours, alpha-tubulin staining", "experimental": "(§1) We next wished to examine how compounds displaying inhibitory activity on the Aurora-A/TPX2 complex formation in vitro affected mitosis in human cells. […] C20 and C23 were tested in the U2OS osteosarcoma cell line, in which we previously characterized significant mitotic defects after Alisertib-dependent Aurora-A inhibition. Briefly, U20S cells were arrested at the G1/S transition by thymidine treatment, released in fresh medium to progress through S and G2 phases, then treated with either C20 or C23 (10 μM) 6 hours after thymidine release (Figure 6A). […] Defects were scored in prometa- and metaphases and included completely disorganized spindles (Figure 6A, second panel), or spindles with supernumerary poles (Figure 6A, third and fourth panel), as typically observed under impaired Aurora-A function. To directly assess the extent of Aurora-A activation we measured Aurora-A auto-phosphorylation on Thr 288. […]\n(§2) The human U2OS osteosarcoma cell line (ATCC: HTB-96) was grown at 37°C in a 5% CO2 atmosphere in DMEM, supplemented with 10% fetal bovine serum. […] After further 4 hours cells were harvested and analyzed. […]\n(§3) Cells grown on poly-lysine-coated coverslips were fixed with cold methanol, 6 min at -20°C. […] Samples were analyzed using a Nikon Eclipse 90i microscope equipped with a Qicam Fast 1394 CCD camera (QImaging). […]"}, "p-Thr288-Aurora-A": {"system": "p-Thr288-Aurora-A", "experiment": "Immunofluorescence of Aurora-A auto-phosphorylation on Thr 288 in U2OS prometaphases", "type": "cell-based, human", "details": "thymidine arrest/release, monastrol added 2 hours before fixation", "experimental": "as §1, §2, §3"}, "Aurora-A [3]": {"biological_target": "T1, Aurora-A", "experiment": "SPR binding of GST-TPX2-1-43 or GST alone to immobilized Aurora-A", "details": "GST alone as control analyte", "description": "as §4"}}, "note": "Read-outs that look alike come from different tables or passages of the source."}
{"compound": "O=C(NCCOc1ccc(-c2ccc(F)cc2)nn1)C1c2ccccc2Oc2ccccc21", "note": "[C14]", "values": [{"measurement": "Kd", "setting": "Aurora-A [1]; Kd", "result": "> 100", "unit": "µM"}]}
{"compound": "CC1=NC2=C(C(=O)CC(c3cccs3)C2)C(c2ccccn2)C1C(=O)Nc1ccc(F)cc1", "note": "(centres unmarked) [C17]", "values": [{"measurement": "Kd", "setting": "Aurora-A [1]; Kd", "result": "> 100", "unit": "µM"}]}
{"compound": "CCn1c(NC(=O)CCn2c(-c3ccc(OC)cc3)n[nH]c2=S)nc2ccccc21", "note": "[C13]", "values": [{"measurement": "Kd", "setting": "Aurora-A [1]; Kd", "result": "> 100", "unit": "µM"}]}
{"compound": "CC1=NC2=C(C(=O)CC(c3cccs3)C2)C(c2ccccn2)C1C(=O)Nc1cccc(F)c1", "note": "(centres unmarked) [C18]", "values": [{"measurement": "Kd", "setting": "Aurora-A [1]; read-out: Kd", "result": "> 100", "unit": "µM"}]}
{"compound": "O=C(NCC1Cc2cccc(-c3ccncc3)c2O1)c1ccccc1F", "note": "(centres unmarked) [C11]", "values": [{"measurement": "Kd", "setting": "Aurora-A [1]; Kd", "result": "> 100", "unit": "µM"}]}
{"compound": "CC(Oc1ccc2c(c1)c1ccnc3c4ccccc4c(=O)n2c13)C(=O)NCc1ccc2c(c1)OCO2", "note": "(centres unmarked) [C25]", "values": [{"measurement": "IC50", "setting": "Aurora-A/TPX2 complex; read-out: IC50", "result": "40 ± 10", "unit": "µM"}, {"measurement": "Kd", "setting": "Aurora-A [1]; read-out: Kd", "result": "12 ± 6", "unit": "µM"}]}
{"compound": "Cc1oc2cc(OCC(N)=O)ccc2c(=O)c1-c1ccc(Cl)cc1", "note": "[C09]", "values": [{"measurement": "Kd", "setting": "Aurora-A [1]; Kd", "result": "80 ± 15", "unit": "µM"}]}
{"compound": "CC1=NC2=C(C(=O)CC(c3ccccc3)C2)C(c2ccccn2)C1C(=O)Nc1ccc(F)cc1", "note": "(centres unmarked) [C15]", "values": [{"measurement": "Kd", "setting": "Aurora-A [1]; Kd", "result": "> 100", "unit": "µM"}]}
{"compound": "O=C1Nc2ccccc2/C1=N\\NC(=O)C1COc2ccccc2O1", "note": "(centres unmarked) [C04]", "values": [{"measurement": "Kd", "setting": "Aurora-A [1]; Kd", "result": 100, "unit": "µM"}]}
{"compound": "CC1=C(/C(O)=N/c2ccc(F)cc2F)[C@H](c2cccnc2)C2=C(C[C@@H](c3ccccc3)CC2=O)N1", "note": "[C22]", "values": [{"measurement": "Interference with TPX2 binding to Aurora-A (in words)", "setting": "Aurora-A/TPX2 complex; 1 μM GST-TPX2-1-43", "result": "did not interfere with the formation of the Aurora-A/TPX2 complex"}, {"measurement": "IC50", "setting": "Aurora-A/TPX2 complex; read-out: IC50", "result": "> 100", "unit": "µM"}, {"measurement": "Kd", "setting": "Aurora-A [1]; read-out: Kd", "result": "15 ± 6", "unit": "µM"}]}
{"compound": "COc1cc(NC(=S)NC(=O)c2cccc(F)c2)ccc1NC(=O)c1cc2ccccc2o1", "note": "[C20]", "values": [{"measurement": "Mitotic spindle defects in prometa- and metaphases", "setting": "[2]", "result": "aberrant mitotic spindles"}, {"measurement": "IC50", "setting": "Aurora-A/TPX2 complex", "result": "20 ± 10", "unit": "µM"}, {"measurement": "Kd", "setting": "Aurora-A [1]; Kd", "result": "30 ± 15", "unit": "µM"}, {"measurement": "p-Thr288-Aurora-A signal compared to controls", "setting": "p-Thr288-Aurora-A", "result": "highly significant reduction"}]}
{"compound": "O=C1Nc2ccccc2/C1=N/NC(=O)c1ccc2ccccc2n1", "note": "[C02]", "values": [{"measurement": "IC50", "setting": "Aurora-A/TPX2 complex; read-out: IC50", "result": "40 ± 10", "unit": "µM"}, {"measurement": "Kd", "setting": "Aurora-A [1]; read-out: Kd", "result": "42 ± 9", "unit": "µM"}]}
{"compound": "O=C(Nc1cccc2ncccc12)c1ccc2c(c1)OCCCO2", "note": "[C03]", "values": [{"measurement": "Kd", "setting": "Aurora-A [1]; Kd", "result": "> 100", "unit": "µM"}]}
{"compound": "CN1/C(=C\\c2cccc3[nH]ccc23)C(=O)c2ccccc2S1(=O)=O", "note": "[C08]", "values": [{"measurement": "Kd", "setting": "Aurora-A [1]; Kd", "result": "80 ± 30", "unit": "µM"}]}
{"compound": "O=C1Nc2ccc(F)cc2/C1=N\\NC(=O)c1ccc2c(c1)OCO2", "note": "[C05]", "values": [{"measurement": "Kd", "setting": "Aurora-A [1]; Kd", "result": "> 100", "unit": "µM"}]}
{"compound": "COc1ccc(-c2n[nH]c(=S)n2CCC(=O)Nc2ccc3nc(N4CCCC4)sc3c2)cc1", "note": "[C24]", "values": [{"measurement": "Kd", "setting": "Aurora-A [1]; Kd", "result": "> 100", "unit": "µM"}]}
{"compound": "O=C1Cc2cc(S(=O)(=O)Nc3ccccc3C(=O)O)ccc2N1", "note": "[C06]", "values": [{"measurement": "Kd", "setting": "Aurora-A [1]; Kd", "result": "> 100", "unit": "µM"}]}
{"compound": "O=C(Nc1ccc2c(c1)CN(C(=O)c1ccco1)CC2)c1ccc(-c2ccccc2)cc1", "note": "[C12]", "values": [{"measurement": "IC50", "setting": "Aurora-A/TPX2 complex", "result": "> 100", "unit": "µM"}, {"measurement": "Interference with TPX2 binding to Aurora-A (in words)", "setting": "Aurora-A/TPX2 complex; 1 μM GST-TPX2-1-43", "result": "did not influence the Aurora-A/TPX2 complex formation"}, {"measurement": "Kd", "setting": "Aurora-A [1]; Kd", "result": "> 100", "unit": "µM"}, {"measurement": "Aurora-A binding (in words)", "setting": "Aurora-A [1]; SPR direct binding", "result": "no Aurora-A binding properties"}]}
{"compound": "O=C1Nc2ccccc2/C1=N\\NC(=O)c1cccc2ccccc12", "note": "[C01]", "values": [{"measurement": "Kd", "setting": "Aurora-A [1]; Kd", "result": "> 100", "unit": "µM"}]}
{"compound": "O=C(COc1ccc2[nH]c3ccccc3c(=O)c2c1)N1c2ccccc2OCC1c1ccccc1", "note": "(centres unmarked) [C21]", "values": [{"measurement": "Kd", "setting": "Aurora-A [1]; Kd", "result": "> 100", "unit": "µM"}]}
{"compound": "Cc1ccc2c(c1)/C(=N\\NC(=O)C1COc3ccccc3O1)C(=O)N2", "note": "(centres unmarked) [C07]", "values": [{"measurement": "Kd", "setting": "Aurora-A [1]; Kd", "result": "> 100", "unit": "µM"}]}
{"compound": "CNC(=O)C1CN(C(=O)c2ccc3ccccc3c2)c2ccccc2O1", "note": "(centres unmarked) [C10]", "values": [{"measurement": "Kd", "setting": "Aurora-A [1]; Kd", "result": "> 100", "unit": "µM"}]}
{"compound": "GST: Recombinant GST protein alone, from Sigma (SRP5348), control analyte", "values": [{"measurement": "Kd", "setting": "Aurora-A [3]", "result": "> 5", "unit": "µM"}]}
{"compound": "COc1cc(/C=C2\\C(=O)Nc3ccccc32)c(Br)cc1OCc1ccccc1C#N", "note": "[C19]", "values": [{"measurement": "Kd", "setting": "Aurora-A [1]; Kd", "result": "> 100", "unit": "µM"}]}
{"compound": "COc1ccc(CNC(=O)C(C)Oc2ccc3c(c2)c2ccnc4c5ccccc5c(=O)n3c24)cc1", "note": "(centres unmarked) [C23]", "values": [{"measurement": "Mitotic spindle defects in prometa- and metaphases", "setting": "[2]", "result": "aberrant mitotic spindles"}, {"measurement": "IC50", "setting": "Aurora-A/TPX2 complex; read-out: IC50", "result": "30 ± 8", "unit": "µM"}, {"measurement": "Kd", "setting": "Aurora-A [1]; read-out: Kd", "result": "12 ± 5", "unit": "µM"}, {"measurement": "p-Thr288-Aurora-A signal compared to controls", "setting": "p-Thr288-Aurora-A", "result": "highly significant reduction"}]}
{"compound": "CC1=C(C(=O)Nc2cccc(F)c2)[C@H](c2ccccn2)C2=C(C[C@H](c3ccccc3)CC2=O)N1", "note": "[C16]", "values": [{"measurement": "Kd", "setting": "Aurora-A [1]; Kd", "result": "> 100", "unit": "µM"}]}
{"compound": "COc1cc(Nc2ncc3c(n2)-c2ccc(Cl)cc2C(c2c(F)cccc2OC)=NC3)ccc1C(=O)O", "note": "[Alisertib, reference compound]", "values": [{"measurement": "Interference with TPX2 binding to Aurora-A (in words)", "setting": "Aurora-A/TPX2 complex; 500 nM GST-TPX2-1-43, Supplementary Figure 2", "result": "does not interfere with TPX2 binding to Aurora-A"}, {"measurement": "Interference with TPX2 binding to Aurora-A (in words)", "setting": "Aurora-A/TPX2 complex; 1 μM GST-TPX2-1-43", "result": "does not compete with TPX2 binding"}]}
